Experiment: Inhibition of MCP1-induced CCR2-mediated chemotaxis in human THP-1 cells

IC50: 5.1 nM
Compound: CC(C)N1CCN[C@@H](C(=O)N2CCN(C(=O)Nc3ccc(Cl)c(Cl)c3)CC2)C1

Source: BindingDB's records for doi:10.1016/j.bmcl.2012.04.118 (Astrazeneca, 2012)
